What follows are compounds tested against T1, USP28 (His-tagged USP28-FL-mammalian) (Homo sapiens, UniProt Q96RU2) (assay: Ubiquitin-Rhodamine 110 Assay for USP28 Activity, Example A-1(a)). Conditions: Ubiquitin-Rhodamine 110 assay, Example A-1(a); read-out: USP28 A-1(a) IC50 range.
T1 construct: Expression of USP28 (1-1077)-TEV-6*His (pTT5 vector); made in house; host or cells: Expi293f cells (pTT5 vector)
T1 sequence (Q96RU2 1-1077): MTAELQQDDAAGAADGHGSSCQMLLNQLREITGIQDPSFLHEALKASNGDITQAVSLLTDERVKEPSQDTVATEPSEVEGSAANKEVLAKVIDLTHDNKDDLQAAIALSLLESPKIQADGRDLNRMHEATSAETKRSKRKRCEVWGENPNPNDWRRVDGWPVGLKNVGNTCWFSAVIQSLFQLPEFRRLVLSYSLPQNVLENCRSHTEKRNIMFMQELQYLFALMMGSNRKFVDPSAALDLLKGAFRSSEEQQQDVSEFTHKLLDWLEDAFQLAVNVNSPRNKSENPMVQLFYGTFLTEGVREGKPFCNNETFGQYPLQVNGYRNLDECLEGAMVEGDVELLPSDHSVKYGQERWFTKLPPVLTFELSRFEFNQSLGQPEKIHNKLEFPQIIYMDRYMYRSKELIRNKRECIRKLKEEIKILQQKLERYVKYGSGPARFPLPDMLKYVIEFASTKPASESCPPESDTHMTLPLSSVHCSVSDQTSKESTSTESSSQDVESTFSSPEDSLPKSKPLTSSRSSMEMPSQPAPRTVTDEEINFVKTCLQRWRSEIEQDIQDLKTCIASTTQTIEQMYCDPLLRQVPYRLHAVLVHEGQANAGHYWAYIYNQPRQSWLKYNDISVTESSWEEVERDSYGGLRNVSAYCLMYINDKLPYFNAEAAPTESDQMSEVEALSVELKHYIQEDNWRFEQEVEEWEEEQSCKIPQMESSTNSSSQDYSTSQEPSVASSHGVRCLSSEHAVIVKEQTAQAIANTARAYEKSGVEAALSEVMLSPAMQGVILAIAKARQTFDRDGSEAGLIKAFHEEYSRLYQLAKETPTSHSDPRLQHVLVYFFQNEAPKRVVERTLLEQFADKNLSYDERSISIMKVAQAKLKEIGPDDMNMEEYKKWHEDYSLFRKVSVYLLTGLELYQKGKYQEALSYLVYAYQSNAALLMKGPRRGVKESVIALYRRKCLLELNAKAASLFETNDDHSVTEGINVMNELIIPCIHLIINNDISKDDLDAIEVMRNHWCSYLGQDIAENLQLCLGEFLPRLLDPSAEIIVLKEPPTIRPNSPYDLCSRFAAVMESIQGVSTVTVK
Assay type: biochemical
How it was run: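 IC50 from 4-parameter logistic fit of percent inhibition versus no-enzyme and DMSO controls; compounds 25 μM to 1.3 nM, 3-fold. Ub-Rh110 cleavage (25 nM, below Km) by […] mammalian-expressed USP28-FL-His ran 45 min at room temperature, stopped with 10 mM citric acid, read ex 485/em 535.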
`O=C(N[C@H]1COc2cc(N3CCNCC3)ccc2C1)c1ccc(NCc2ccc3c(c2)CCO3)nc1` [Example 472, (R)-6-(((2,3-dihydrobenzofuran-5-yl)methyl)amino)-N-(7-(piperazin-1-yl)chroman-3-yl)nicotinamide] gave an IC50 of 200 to 2000 nM.
`CC(=O)Nc1cccc(CNc2ccc(C(=O)N[C@H]3COc4cc(N5CCNCC5)ccc4C3)cn2)c1` [Example 473, (R)-6-((3-acetamidobenzyl)amino)-N-(7-(piperazin-1-yl)chroman-3-yl)nicotinamide] gave an IC50 of over 2000 nM.
`CCc1cccc2c(C(=O)N[C@H]3COc4cc(N5CCNCC5)ccc4C3)cnn12` [Example 474, 7-ethyl-N-[(3R)-7-(piperazin-1-yl)-3,4-dihydro-2H-1-benzopyran-3-yl]pyrazolo[1,5-a]pyridine-3-carboxamide] showed an IC50 of 1 to 50 nM.
Compound `O=C(N[C@H]1COc2cc(N3CCNCC3)ccc2C1)c1cnn2c(CO)cccc12` [Example 475, 7-(hydroxymethyl)-N-[(3R)-7-(piperazin-1-yl)-3,4-dihydro-2H-1-benzopyran-3-yl]pyrazolo[1,5-a]pyridine-3-carboxamide] has an IC50 of 200 to 2000 nM.
